Data taken from US8071768B2, “Alkylquinoline and alkylquinazoline kinase modulators” (Janssen Pharmaceutica, N.V., priority 2005, dated 2011).

Legend:
[1] = molecular target: T1, isolated kinase domain of the human c-kit receptor (Homo sapiens, UniProt P10721); experiment: c-Kit Fluorescence Polarization Kinase Assay; assay type: biochemical; conditions: uncertainty ±10%; read-out: ckit IC50
T1 construct: isolated kinase domain of the human c-kit receptor; purchased ProQinase lot SP005
Experimental: c-Kit Fluorescence Polarization Kinase Assay
The compounds of the present invention are also specific inhibitors of c-Kit. Selection of preferred compounds of Formula I for use as c-Kit inhibitors was performed in the following manner using an in vitro kinase assay to measure inhibition of the isolated kinase domain of the human c-kit receptor in a fluorescence polarization (FP) protocol. The c-kit assay utilized the fluorescein-labeled phosphopeptide and the anti-phosphotyrosine antibody included in the Panvera Phospho-Tyrosine Kinase Kit (Green) supplied by Invitrogen. When c-kit phosphorylated the poly Glu4Tyr, the fluorescein-labeled phosphopeptide was displaced from the anti-phosphotyrosine antibody by the phosphorylated poly Glu4Tyr, thus decreasing the FP value. The c-kit kinase reaction was incubated at room temperature for 45 minutes under the following conditions: 1 nM c-kit (ProQinase, lot SP005), 100 ug/mL poly Glu4Tyr, 50 uM ATP, 5 mM MgCl2, 1 mM DTT, 0.01% Tween-20, 1% DMSO or compound in […], pH 7.5. The kinase reaction was stopped with the addition of EDTA. The fluorescein-labeled phosphopeptide and the anti-phosphotyrosine antibody were added and incubated for 30 minutes at room temperature and fluorescence polarization was read. Data points were an average of triplicate samples. Inhibition and IC50 data analysis were done with GraphPad Prism using a non-linear regression fit with a multiparamater, sigmoidal dose-response (variable slope) equation.

TrkB = molecular target: T2, TrkB (Homo sapiens, UniProt Q16620); experiment: Trk B Fluorescence Polarization Kinase Assay; assay type: biochemical; conditions: uncertainty ±10%
T2 construct: purchased Upstate 14-507M
T2 sequence (Q16620 32-822): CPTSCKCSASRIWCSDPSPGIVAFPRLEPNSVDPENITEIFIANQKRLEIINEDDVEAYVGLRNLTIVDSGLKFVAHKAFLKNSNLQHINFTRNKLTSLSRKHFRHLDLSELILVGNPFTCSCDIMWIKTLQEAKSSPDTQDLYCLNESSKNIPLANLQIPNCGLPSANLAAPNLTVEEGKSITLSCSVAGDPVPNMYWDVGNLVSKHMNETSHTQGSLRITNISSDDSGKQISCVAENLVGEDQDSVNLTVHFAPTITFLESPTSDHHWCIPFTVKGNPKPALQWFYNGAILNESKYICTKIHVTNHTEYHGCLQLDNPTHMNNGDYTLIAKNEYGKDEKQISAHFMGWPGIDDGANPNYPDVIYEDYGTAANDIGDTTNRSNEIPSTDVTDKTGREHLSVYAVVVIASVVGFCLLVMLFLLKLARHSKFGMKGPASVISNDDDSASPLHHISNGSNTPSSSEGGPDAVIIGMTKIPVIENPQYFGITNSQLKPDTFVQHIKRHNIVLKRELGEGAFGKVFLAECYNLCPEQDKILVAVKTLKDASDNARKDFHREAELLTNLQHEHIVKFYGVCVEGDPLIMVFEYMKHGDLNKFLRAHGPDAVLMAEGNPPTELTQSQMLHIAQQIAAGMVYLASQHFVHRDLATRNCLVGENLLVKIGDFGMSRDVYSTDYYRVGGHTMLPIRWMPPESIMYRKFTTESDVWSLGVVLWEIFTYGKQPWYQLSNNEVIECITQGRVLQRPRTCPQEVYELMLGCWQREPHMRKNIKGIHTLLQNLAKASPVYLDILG
How it was run: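 The TrkB kinase reaction (50 nM enzyme, 20 ug/mL poly Glu4Tyr, 150 uM ATP, 5 mM MgCl2, 1% DMSO) ran 30 minutes at room temperature and was stopped with EDTA. Phosphorylation was detected by fluorescence-polarization displacement of a fluorescein phosphopeptide from an anti-phosphotyrosine antibody. IC50 came from a variable-slope sigmoidal fit of triplicates.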

MV4-11 cells = experiment: Inhibition of MV4-11 cell proliferation (CellTiterGlo); assay type: cell-based; conditions: Homo sapiens; 72 hours growth; uncertainty ±20%
Experimental: Inhibition of MV4-11 and Baf3 Cell Proliferation
To assess the cellular potency of the compounds of the present invention, FLT3 specific growth inhibition was measured in the leukemic cell line MV4-11 (ATCC Number: CRL-9591). MV4-11 cells are derived from a patient with childhood acute myelomonocytic leukemia with an 11q23 translocation resulting in a MLL gene rearrangement and containing an FLT3-ITD mutation (AML subtype M4)(1,2). MV4-11 cells cannot grow and survive without active FLT3ITD.
To measure proliferation inhibition by test compounds, the luciferase based CellTiterGlo reagent (Promega), which quantifies total cell number based on total cellular ATP concentration, was used. […]
Compound dilutions or 0.1% DMSO (vehicle control) are added to cells and the cells are allowed to grow for 72 hours at standard cell growth conditions (37° C., 5% CO2). […] To measure total cell growth an equal volume of CellTiterGlo reagent was added to each well, according to the manufacturer's instructions, and luminescence was quantified. Total cell growth was quantified as the difference in luminescent counts (relative light units, RLU) of cell number at Day 0 compared to total cell number at Day 3 (72 hours of growth and/or compound treatment). One hundred percent inhibition of growth is defined as an RLU equivalent to the Day 0 reading. […]

T1 sequence (P10721 589-937 limits assumed): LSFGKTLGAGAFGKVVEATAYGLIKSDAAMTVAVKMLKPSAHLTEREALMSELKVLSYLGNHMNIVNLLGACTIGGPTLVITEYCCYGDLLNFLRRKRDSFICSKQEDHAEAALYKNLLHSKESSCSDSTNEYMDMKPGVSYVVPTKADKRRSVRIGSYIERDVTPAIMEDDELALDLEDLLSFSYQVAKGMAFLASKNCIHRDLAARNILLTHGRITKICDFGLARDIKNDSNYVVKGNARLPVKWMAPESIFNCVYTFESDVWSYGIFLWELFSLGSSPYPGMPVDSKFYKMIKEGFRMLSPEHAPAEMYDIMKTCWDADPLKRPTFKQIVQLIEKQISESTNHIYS

IC50 [1]: 14 nM | IC50 (TrkB): 600 nM | IC50 (MV4-11 cells): 14 nM
SMILES: CC(C)Oc1ccc(NC(=O)N2CCC(c3ncnc4cc(OCCCN5CCN(C)CC5)ccc34)CC2)cc1 [Compound 39]
